# Data taken from patent US12065654B2, “Plants having increased tolerance to herbicides” (BASF SE, priority 2014, dated 2024).
# Legend:
# Chlamydomonas HPPD1 = experiment: HPPD activity assay; format: biochemical, Chlamydomonas reinhardtii; conditions: HPPD enzyme Chlamydomonas HPPD1;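 note: reaction started with 4-HPP at 0.05 mM after 30 min preincubation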
# Procedure: (§1) The activity assay for HPPD is based on the analysis of homogentisic acid by reversed phase HPLC.
# (§2) The assay mixture can contain 150 mM potassium phosphate buffer pH 7.0, 50 mM L-ascorbic acid, 100 μM Catalase (Sigma-Aldrich), 1 μM FeSO4 and 0.2 units of purified HPPD enzyme in a total volume of 505 μl. 1 unit is defined as the amount of enzyme that is required to produce 1 nmol of HGA per minute at 20° C.
# (§3) The reaction is allowed to proceed for 45 min at room temperature. The reaction is stopped by the addition of 50 μl of 4.5 M phosphoric acid. The sample is filtered using a […] pore size PVDF filtration device. 5 μl of the cleared sample is analyzed on an UPLC HSS T3 column (particle size 1.8 μm, dimensions 2, 1×50 mm; Waters) by isocratic elution using 90% 20 mM NaH2PO4 pH 2.2, 10% methanol (v/v).
# (§4) HGA is detected electrochemically at 750 mV (mode: DC; polarity: positive) and quantified by integrating peak areas (Empower software; Waters).
# (§5) Inhibitors are dissolved in DMSO (dimethylsulfoxide) to a concentration of 0.5 mM. From this stock solution serial five-fold dilutions are prepared in DMSO, which are used in the assay. The respective inhibitor solution accounts for 1% of the assay volume. Thus, final inhibitor concentrations range from 5 μM to 320 pM, respectively. Activities are normalized by setting the uninhibited enzyme activity to 100%. IC50 values are calculated using non-linear regression.
# (§6) Using methods which are described in the above examples or well known in the art, purified recombinant wild-type HPPD enzymes are characterized with respect to their kinetic properties and sensitivity towards HPPD inhibiting herbicides. Apparent michaelis constants (Km) and maximal reaction velocities (Vmax) are calculated by non-linear regression with the software GraphPad Prism 5 (GraphPad Software, La Jolla, USA) using a substrate inhibition model. […] Weighted means (by standard error) of Km and IC50 values are calculated from at least three independent experiments. The Cheng-Prusoff equation for competitive inhibition (Cheng, Y. C.; Prusoff, W. H. Biochem Pharmacol 1973, 22, 3099-3108) is used to calculate dissociation constants (Ki).
# (§7) Field performance of the HPPD enzyme, which is used as a herbicide tolerance trait may depend not only on its lack of sensitivity towards HPPD inhibiting herbicides but also on its activity. To assess the potential performance of a herbicide tolerance trait a tolerance index (TI) is calculated using the following formula: […]
# (§8) Easy comparison and ranking of each trait is enabled by normalizing tolerance indexes on Arabidopsis wild-type HPPD.
# [1] = target: T1, Hordeum HPPD L320H, P321A (Hordeum vulgare, UniProt O48604, L320H/P321A); experiment: HPPD activity assay, mutant; format: biochemical; conditions: Hordeum HPPD variant L320H, normalized on wild-type
# T1 construct: His-tag (N); made in house; host or cells: E. coli BL21 (DE3)
# T1 sequence (O48604 whole entry R146V/R147D/R148G/A164G/L320H/P321A): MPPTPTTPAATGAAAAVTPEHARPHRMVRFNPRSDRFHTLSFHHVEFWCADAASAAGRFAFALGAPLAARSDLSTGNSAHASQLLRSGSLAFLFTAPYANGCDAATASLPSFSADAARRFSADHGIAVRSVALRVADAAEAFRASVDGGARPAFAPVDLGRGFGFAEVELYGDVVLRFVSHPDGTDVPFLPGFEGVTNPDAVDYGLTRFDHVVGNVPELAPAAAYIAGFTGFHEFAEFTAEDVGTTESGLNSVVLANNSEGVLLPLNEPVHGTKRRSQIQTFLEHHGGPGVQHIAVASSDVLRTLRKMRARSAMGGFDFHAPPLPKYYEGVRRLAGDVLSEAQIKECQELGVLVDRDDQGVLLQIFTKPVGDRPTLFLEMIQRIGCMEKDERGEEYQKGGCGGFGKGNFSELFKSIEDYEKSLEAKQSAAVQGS
# Procedure: as §1, §2, §3, §4, §5
# (§9) Purified, mutant HPPD enzymes are obtained by the methods described above. Dose response and kinetic measurements are carried out using the described HPPD activity assay. Apparent michaelis constants (Km) and maximal reaction velocities (Vmax) are calculated by non-linear regression with the software GraphPad Prism 5 (GraphPad Software, La Jolla, USA) using a substrate inhibition model. […] Weighted means (by standard error) of K. and IC50 values are calculated from at least three independent experiments. The Cheng-Prusoff equation for competitive inhibition (Cheng, Y. C.; Prusoff, W. H. Biochem Pharmacol 1973, 22, 3099-3108) is used to calculate dissociation constants (Ki).
# as §7, with “of the optimized HPPD enzyme,” for “of the HPPD enzyme,”
# (§10) Easy comparison and ranking of each trait is enabled by normalizing tolerance indexes on the respective wild-type HPPD.
# Hordeum HPPD F404L = target: T2, Hordeum HPPD F404L (Hordeum vulgare, UniProt O48604, A164G/F404L/R146V/R147D/R148G); experiment: HPPD activity assay, mutant; format: biochemical; conditions: Hordeum HPPD variant F404L; normalized on wild-type
# T2 construct: subcloned into a modified pET24D (Novagen) expression vector resulting in N-terminally His-tagged expression constructs; His tag (N); made in house; host or cells: E. coli BL21 (DE3)
# T2 sequence (O48604 whole entry R146V/R147D/R148G/A164G/F404L): as the sequence (O48604 whole entry R146V/R147D/R148G/A164G/L320H/P321A) above, with H320L, A321P, F404L counted along it
# Procedure: as §1, §2, §3, §4, §5, §9
# as §7, with “of the optimized HPPD enzyme,” for “of the HPPD enzyme,”
# as §10
# Hordeum HPPD L320H = target: T3, Hordeum HPPD L320H (Hordeum vulgare, UniProt O48604, A164G/L320H/R146V/R147D/R148G); experiment: HPPD activity assay, mutant; format: biochemical; conditions: Hordeum HPPD variant L320H; normalized on wild-type;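 note: reaction started with 4-HPP at 0.05 mM after 30 min preincubation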
# T3 construct: His-tag (N); made in house; host or cells: E. coli BL21 (DE3)
# T3 sequence (O48604 whole entry R146V/R147D/R148G/A164G/L320H): as the sequence (O48604 whole entry R146V/R147D/R148G/A164G/L320H/P321A) above, with A321P counted along it
# Procedure: as §1, §2, §3, §4, §5, §9
# as §7, with “of the optimized HPPD enzyme,” for “of the HPPD enzyme,”
# as §10
# [2] = target: T4, Hordeum HPPD L353M, P321R, L320N (Hordeum vulgare, UniProt O48604, L320N/L353M/P321R); experiment: HPPD activity assay, mutant; format: biochemical; conditions: Hordeum HPPD variant L353M, normalized on wild-type
# T4 construct: His-tag (N); made in house; host or cells: E. coli BL21 (DE3)
# T4 sequence (O48604 whole entry R146V/R147D/R148G/A164G/L320N/P321R/L353M): as the sequence (O48604 whole entry R146V/R147D/R148G/A164G/L320H/P321A) above, with H320N, A321R, L353M counted along it
# Procedure: as §1, §2, §3, §4, §5, §9
# as §7, with “of the optimized HPPD enzyme,” for “of the HPPD enzyme,”
# as §10
# Hordeum HPPD L334E = target: T5, Hordeum HPPD L334E (Hordeum vulgare, UniProt O48604, A164G/L334E/R146V/R147D/R148G); experiment: HPPD activity assay, mutant; format: biochemical; conditions: Hordeum HPPD variant L334E; normalized on wild-type;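 note: reaction started with 4-HPP at 0.05 mM after 30 min preincubation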
# T5 construct: His-tag (N); made in house; host or cells: E. coli BL21 (DE3)
# T5 sequence (O48604 whole entry R146V/R147D/R148G/A164G/L334E): as the sequence (O48604 whole entry R146V/R147D/R148G/A164G/L320H/P321A) above, with H320L, A321P, L334E counted along it
# Procedure: as §1, §2, §3, §4, §5, §9
# as §7, with “of the optimized HPPD enzyme,” for “of the HPPD enzyme,”
# as §10
# [3] = target: T6, Hordeum HPPD L353M, P321R, L320Q (Hordeum vulgare, UniProt O48604, L320Q/L353M/P321R); experiment: HPPD activity assay, mutant; format: biochemical; conditions: Hordeum HPPD variant L353M, normalized on wild-type;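 note: reaction started with 4-HPP at 0.05 mM after 30 min preincubation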
# T6 construct: His-tag (N); made in house; host or cells: E. coli BL21 (DE3)
# T6 sequence (O48604 whole entry R146V/R147D/R148G/A164G/L320Q/P321R/L353M): as the sequence (O48604 whole entry R146V/R147D/R148G/A164G/L320H/P321A) above, with H320Q, A321R, L353M counted along it
# Procedure: as §1, §2, §3, §4, §5, §9
# as §7, with “of the optimized HPPD enzyme,” for “of the HPPD enzyme,”
# as §10
# Hordeum HPPD R309K = target: T7, Hordeum HPPD R309K (Hordeum vulgare, UniProt O48604, A164G/R146V/R147D/R148G/R309K); experiment: HPPD activity assay, mutant; format: biochemical; conditions: Hordeum HPPD variant R309K; normalized on wild-type
# T7 construct: subcloned into a modified pET24D (Novagen) expression vector resulting in N-terminally His-tagged expression constructs; His tag (N); made in house; host or cells: E. coli BL21 (DE3)
# T7 sequence (O48604 whole entry R146V/R147D/R148G/A164G/R309K): as the sequence (O48604 whole entry R146V/R147D/R148G/A164G/L320H/P321A) above, with R309K, H320L, A321P counted along it
# Procedure: as §1, §2, §3, §4, §5, §9
# as §7, with “of the optimized HPPD enzyme,” for “of the HPPD enzyme,”
# as §10
# Hordeum HPPD L320Q = target: T8, Hordeum HPPD L320Q (Hordeum vulgare, UniProt O48604, A164G/L320Q/R146V/R147D/R148G); experiment: HPPD activity assay, mutant; format: biochemical; conditions: Hordeum HPPD variant L320Q; normalized on wild-type
# T8 construct: His-tag (N); made in house; host or cells: E. coli BL21 (DE3)
# T8 sequence (O48604 whole entry R146V/R147D/R148G/A164G/L320Q): as the sequence (O48604 whole entry R146V/R147D/R148G/A164G/L320H/P321A) above, with H320Q, A321P counted along it
# Procedure: as §1, §2, §3, §4, §5, §9
# as §7, with “of the optimized HPPD enzyme,” for “of the HPPD enzyme,”
# as §10
# Hordeum HPPD L320N = target: T9, Hordeum HPPD L320N (Hordeum vulgare, UniProt O48604, A164G/L320N/R146V/R147D/R148G); experiment: HPPD activity assay, mutant; format: biochemical; conditions: Hordeum HPPD variant L320N; normalized on wild-type;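 note: reaction started with 4-HPP at 0.05 mM after 30 min preincubation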
# T9 construct: His-tag (N); made in house; host or cells: E. coli BL21 (DE3)
# T9 sequence (O48604 whole entry R146V/R147D/R148G/A164G/L320N): as the sequence (O48604 whole entry R146V/R147D/R148G/A164G/L320H/P321A) above, with H320N, A321P counted along it
# Procedure: as §1, §2, §3, §4, §5, §9
# as §7, with “of the optimized HPPD enzyme,” for “of the HPPD enzyme,”
# as §10
# [4] = target: T10, Hordeum HPPD (SEQ ID NO:2) (Hordeum vulgare, UniProt O48604, A164G/R146V/R147D/R148G); experiment: HPPD activity assay; format: biochemical; conditions: for Normalized tolerance index (TI): Hordeum HPPD variant Wild-type (reference, SEQ ID NO: 2); for TI (tolerance index): Hordeum HPPD, not normalized
# T10 construct: His-tag (N); made in house; host or cells: E. coli BL21 (DE3)
# T10 sequence (O48604 whole entry R146V/R147D/R148G/A164G): as the sequence (O48604 whole entry R146V/R147D/R148G/A164G/L320H/P321A) above, with H320L, A321P counted along it
# Procedure: as §1, §2, §3, §4, §5, §6, §7, §8
# Synechococcus HPPD = experiment: HPPD activity assay; format: biochemical; conditions: HPPD enzyme Synechococcus
# Procedure: as §1, §2, §3, §4, §5, §6, §7, §8
# Rhodococcus HPPD1 = experiment: HPPD activity assay; format: biochemical; conditions: HPPD enzyme Rhodococcus HPPD1
# Procedure: as §1, §2, §3, §4, §5, §6, §7, §8
Structure (SMILES),TI normalized to Arabidopsis HPPD (Chlamydomonas HPPD1),Normalized tolerance index (TI) [1],Normalized tolerance index (TI) (Hordeum HPPD F404L),Normalized tolerance index (TI) (Hordeum HPPD L320H),Normalized tolerance index (TI) [2],Normalized tolerance index (TI) (Hordeum HPPD L334E),Normalized tolerance index (TI) [3],Normalized tolerance index (TI) (Hordeum HPPD R309K),Normalized tolerance index (TI) (Hordeum HPPD L320Q),Normalized tolerance index (TI) (Hordeum HPPD L320N),Ki [4] [nM],Normalized tolerance index (TI) [4],TI (tolerance index) [4],TI normalized to Arabidopsis HPPD (Synechococcus HPPD),TI normalized to Arabidopsis HPPD (Rhodococcus HPPD1)
"Cc1c(C(=O)c2cnn(C)c2O)ccc(S(C)(=O)=O)c1C1=NOCC1 [Inhibitor 1, [3-(4,5-dihydroisoxazol-3-yl)-2-methyl-4-methylsulfonyl-phenyl]-(5-hydroxy-1-methyl-pyrazol-4-yl)methanone]",1.7,5.1,3,5.4,2.6,3.6,5.3,1.5,1.2,1.3,7.9,1,3.5E−3,6.7,18.9
"CS(=O)(=O)c1ccc(C(=O)C2C(=O)CCCC2=O)c([N+](=O)[O-])c1 [Inhibitor 2, 2-(4-methylsulfonyl-2-nitro-benzoyl)cyclohexane-1,3-dione]",0.1,3.5,0.9,1.2,0.4,4,2.2,1.3,0.3,0.3,73,1,3.2E−2,2.1,0.3
"COCCOCc1nc(C(F)(F)F)ccc1C(=O)C1=C(O)C2CCC(C2)C1=O (centres unmarked) [Inhibitor 3, 2-hydroxy-3-[2-(2-methoxyethoxymethyl)-6-(trifluoromethyl)pyridine-3-carbonyl]bicyclo[3.2.1]oct-2-en-4-one]",0.1,2.5,0.4,3,0.6,1.2,0.6,2.5,1.1,1.2,–,1,–,0.0,1.2
"CS(=O)(=O)c1ccc(C(=O)C2C(=O)CCCC2=O)c(Cl)c1COCC(F)(F)F [Inhibitor 4, 2-[2-chloro-4-methylsulfonyl-3-(2,2,2-trifluoroethoxymethyl)benzoyl]cyclohexane-1,3-dione]",0.1,4.3,1.2,5.1,2.2,2.1,1.3,4.6,1,1.5,–,1,–,0.1,0.6
